Data: patent US8222425B2, “Organic compounds and their uses” (Novartis AG, priority 2007, dated 2012)
In brackets after ≈: the same amount, converted by molar mass. Where two headings read alike, the source gives them in different places.

Columns and labels:
Thermodynamic solubility = format: physicochemical; details: thermodynamic from solid
Procedure: Thermodynamic solubility for the compounds of the invention listed in Table C is measured by a published literature procedure, e.g., Liping Zhou, et al., J. Pharm. Sci. (2007) 96(11): 3052-3071.
The DMSO stocks of test compounds previously dissolved in 25 μL of DMSO (˜10 mM) in mini-prep vial (MPV: Whatman, with PVDF filter and 0.45 μm pore size) chamber were evaporated via a GeneVac HT-4X evaporator for approximately 1 hour, at the guard temperature of 30° C. An aliquot of 250 μL buffer solution (pH 1.0 or 6.8) was added into each MPV chamber containing powders reconstituted from DMSO stock solutions. The MPV filter plungers were pushed down into the chamber until the membrane of the filter plunger slightly touched the surface of the buffer to promote equilibrium between the two compartments and to minimize the adsorption due to non-specific binding of samples during the subsequent 24-hr incubation (at 600 RPM at room temperature). Immediately after the 24-hr incubation, the plungers were further pushed down to the bottom of the chambers. More solution was pushed through the membrane and entered the plunger compartment. The filter/chamber assemblies were then put on a shaker for another 30 minutes at 600 RPM. Afterwards, filtrates were further diluted (1:10) with 50/50 acetonitrile/water solvent followed by a thorough mixing process. Both plates with diluted and undiluted filtrates were analyzed by HPLC and quantified against the four-point standard dilution curve of the same test compound (5 μM, 35 μM, 65 μM and 100 μM, respectively). In the current study, solubility reflects the average of triplicate samples tested at each pH.

HCV = details: ribavirin alone; cited from earlier work
[1] = Pharmacokinetic profile in rats; design: species or system Sprague Dawley rats; details: rat, in vivo; for Cmax: Sprague Dawley; for Cmax / AUC: po, 10 mg/kg
Procedure: Compounds listed in Table D are administered as a solution orally via gavage at 10 mg/kg to Sprague Dawley rats at a dosing volume of 10 ml/kg. Samples are collected via a surgically implanted cannula at selected timepoints deemed necessary to characterize pharmacokinetic parameters. Blood samples are placed on wet ice and spun down to plasma within 5 minutes of timepoint collection. Plasma samples are frozen until bioanalytical analysis. Compounds listed in Table D are administered intravenously into a surgically implanted cannula as a solution at 1 mg/kg to Sprague Dawley rats at a dosing volume of 1 ml/kg. Samples are collected via another surgically implanted cannula at selected timepoints deemed necessary to characterize pharmacokinetic parameters. Blood samples are placed on wet ice and spun down to plasma within 5 minutes of timepoint collection. Plasma samples are frozen until bioanalytical analysis.

| SMILES | solubility at 24 h (Thermodynamic solubility; pH 1, simulated gastric fluid) | solubility at 24 h (Thermodynamic solubility; pH 6.8, aqueous buffer) | Cmax [1] | AUC [1] | other results |
| --- | --- | --- | --- | --- | --- |
| CCC[C@H](NC(=O)[C@@H]1C[C@@]2(CN1C(=O)[C@@H](NC(=O)[C@@H](NC(=O)[C@@H]1CCCN1C)C1CCCCC1)C(C)(C)C)C(C)(C)C21CCC1)C(=O)C(=O)NC1CC1 [Compound A-33] | 790 µM (≈ 584 µg/mL) | 110 µM (≈ 81.3 µg/mL) | – | – | – |
| CCC[C@H](NC(=O)[C@@H]1C[C@@]2(CN1C(=O)[C@@H](NC(=O)[C@@H](NC(=O)[C@@H]1CCCCN1C(C)C)C1CCCCC1)C(C)(C)C)C(C)(C)C21CCC1)C(=O)C(=O)NC1CC1 [Compound A-6] | 930 µM (≈ 726 µg/mL) | < 5 µM | – | – | – |
| CCC[C@H](NC(=O)[C@@H]1C[C@@]2(CN1C(=O)[C@@H](NC(=O)[C@@H](NC(=O)[C@@H]1CCCN(C)C1)C(C)(C)C)C(C)(C)C)C(C)(C)C21CCC1)C(=O)C(=O)NC1CC1 [Compound A-58] | 960 µM (≈ 698 µg/mL) | 930 µM (≈ 676 µg/mL) | – | – | – |
| CCC[C@H](NC(=O)[C@@H]1C[C@@]2(CN1C(=O)[C@@H](NC(=O)[C@@H](NC(=O)[C@@H]1CCCCN1C(C)C)C(C)(C)C)C1CCCCC1)C(C)(C)C21CCC1)C(=O)C(=O)NC1CC1 [Compound A-45] | 720 µM (≈ 562 µg/mL) | < 5 µM | – | – | – |
| CCC[C@H](NC(=O)[C@@H]1C[C@@]2(CN1C(=O)[C@@H](NC(=O)[C@@H](NC(=O)[C@H]1CCCCN1C(C)C)C1CCCCC1)C(C)(C)C)C(C)(C)C21CCC1)C(=O)C(=O)NC1CC1 [Compound A-5] | 480 µM (≈ 375 µg/mL) | 44 µM (≈ 34.4 µg/mL) | – | – | – |
| NC(=O)c1ncn([C@@H]2O[C@H](CO)[C@@H](O)[C@H]2O)n1 [Ribavirin, 1-β-D-ribofuranosyl-1-1,2,4-triazole-3-caroxamide] | – | – | – | – | patients in whom serum amino transferase levels are reduced to normal (HCV): 40% |
| CCCC(NC(=O)[C@@H]1C[C@@]2(CN1C(=O)[C@@H](NC(=O)[C@@H](NC(=O)C1CCN1C(C)(C)C)C1CCCCC1)C(C)(C)C)C(C)(C)C21CCC1)C(=O)C(=O)NC1CC1 (stereo partly shown) [Compound A-64] | 710 µM (≈ 545 µg/mL) | < 85 µM | 904 nM | 274 nM·h/mg/kg | – |
| CCC[C@H](NC(=O)[C@@H]1C[C@@]2(CN1C(=O)[C@@H](NC(=O)[C@@H](NC(=O)[C@@H]1CCCN(C)C1)C1CCCCC1)C(C)(C)C)C(C)(C)C21CCC1)C(=O)C(=O)NC1CC1 [Compound A-50] | 830 µM (≈ 625 µg/mL) | 240 µM (≈ 181 µg/mL) | – | – | – |
| CCC[C@H](NC(=O)[C@@H]1C[C@@]2(CN1C(=O)[C@@H](NC(=O)[C@@H](NC(=O)[C@@H]1CCCN(CC)C1)C1CCCCC1)C(C)(C)C)C(C)(C)C21CCC1)C(=O)C(=O)NC1CC1 [Compound A-15] | 700 µM (≈ 537 µg/mL) | 170 µM (≈ 130 µg/mL) | 2030 nM | 474 nM·h/mg/kg | Bioavailability [1]: 42 % F |
| CCC[C@H](NC(=O)[C@@H]1C[C@@]2(CN1C(=O)[C@@H](NC(=O)[C@@H](NC(=O)[C@H]1CCCN(CC)C1)C(C)(C)C)C(C)(C)C)C(C)(C)C21CCC1)C(=O)C(=O)NC1CC1 [Compound A-59] | 840 µM (≈ 622 µg/mL) | 550 µM (≈ 408 µg/mL) | 653 nM | 203 nM·h/mg/kg | – |
| CCC[C@H](NC(=O)[C@@H]1C[C@@]2(CN1C(=O)[C@@H](NC(=O)[C@@H](NC(=O)[C@@H]1CCCCN1C(C)C)C(C)(C)C)C(C)(C)C)C(C)(C)C21CCC1)C(=O)C(=O)NC1CC1 [Compound A-44] | 690 µM (≈ 521 µg/mL) | 64 µM (≈ 48.3 µg/mL) | 1110 nM | 523 nM·h/mg/kg | Bioavailability [1]: 43 % F |
| CCC[C@H](NC(=O)[C@@H]1C[C@@]2(CN1C(=O)[C@@H](NC(=O)[C@@H](NC(=O)[C@@H]1CCCCN1C(C)C)C1CCCCC1)C(C)(C)C)C(C)(C)C21CCC1)C(=O)C(=O)NC(C)C [Compound A-54] | 790 µM (≈ 619 µg/mL) | 28 µM (≈ 21.9 µg/mL) | 1430 nM | 416 nM·h/mg/kg | Bioavailability [1]: 28 % F |
| CCC[C@H](NC(=O)[C@@H]1C[C@@]2(CN1C(=O)[C@@H](NC(=O)[C@@H](NC(=O)[C@@H]1CCCN(C)C1)C(C)(C)C)C1CCCCC1)C(C)(C)C21CCC1)C(=O)C(=O)NC1CC1 [Compound A-66] | 840 µM (≈ 633 µg/mL) | 600 µM (≈ 452 µg/mL) | – | – | – |
| CCC[C@H](NC(=O)[C@@H]1C[C@@]2(CN1C(=O)[C@@H](NC(=O)[C@@H](NC(=O)[C@H]1CCCN(C)C1)C(C)(C)C)C1CCCCC1)C(C)(C)C21CCC1)C(=O)C(=O)NC1CC1 [Compound A-67] | 740 µM (≈ 557 µg/mL) | 690 µM (≈ 520 µg/mL) | – | – | – |
| CCC[C@H](NC(=O)[C@@H]1C[C@@]2(CN1C(=O)[C@@H](NC(=O)[C@@H](NC(=O)[C@H]1CCCCN1CC)C(C)(C)C)C(C)(C)C)C(C)(C)C21CCC1)C(=O)C(=O)NC1CC1 [Compound A-72] | 840 µM (≈ 622 µg/mL) | 340 µM (≈ 252 µg/mL) | – | – | – |
| CCC[C@H](NC(=O)[C@@H]1C[C@@]2(CN1C(=O)[C@@H](NC(=O)[C@@H](NC(=O)[C@@H]1CCN1C(C)C)C1CCCCC1)C(C)(C)C)C(C)(C)C21CCC1)C(=O)C(=O)NC1CC1 [Compound A-62] | 930 µM (≈ 700 µg/mL) | < 5 µM | 796 nM | 241 nM·h/mg/kg | Bioavailability [1]: 36 % F |
| CCC[C@H](NC(=O)[C@@H]1C[C@@]2(CN1C(=O)[C@@H](NC(=O)[C@@H](NC(=O)[C@@H]1CCCCN1C(C)C)C(C)(C)C)C(C)(C)C)C(C)(C)C21CCC1)C(=O)C(=O)NC1CCC1 [Compound A-82] | 830 µM (≈ 638 µg/mL) | < 5 µM | – | – | – |
| CCC[C@H](NC(=O)C1C[C@@]2(CN1C(=O)[C@@H](NC(=O)[C@@H](NC(=O)[C@H]1CCCN1CC)C1CCCCC1)C(C)(C)C)C(C)(C)C21CCC1)C(=O)C(=O)NC1CC1 (stereo partly shown) [Compound A-11] | 870 µM (≈ 655 µg/mL) | 92 µM (≈ 69.3 µg/mL) | – | – | – |
| CCC[C@H](NC(=O)C1C[C@@]2(CN1C(=O)[C@@H](NC(=O)[C@@H](NC(=O)[C@@H]1CCCN1CC)C1CCCCC1)C(C)(C)C)C(C)(C)C21CCC1)C(=O)C(=O)NC1CC1 (stereo partly shown) [Compound A-10] | 910 µM (≈ 685 µg/mL) | 24 µM (≈ 18.1 µg/mL) | 1470 nM | 460 nM·h/mg/kg | Bioavailability [1]: 46 % F |
| CCC[C@H](NC(=O)[C@@H]1C[C@@]2(CN1C(=O)[C@@H](NC(=O)[C@@H](NC(=O)[C@@H]1CN(C)CCN1C(C)C)C1CCCCC1)C(C)(C)C)C(C)(C)C21CCC1)C(=O)C(=O)NC1CC1 [Compound A-43] | 640 µM (≈ 510 µg/mL) | 290 µM (≈ 231 µg/mL) | – | – | – |
| C=C[C@@H]1C[C@]1(NC(=O)[C@@H]1C[C@@]2(CN1C(=O)[C@@H](NC(=O)[C@@H](NC(=O)[C@@H]1CCCCN1C(C)C)C(C)(C)C)C(C)(C)C)C(C)(C)C21CCC1)C(=O)NS(=O)(=O)C1CC1 [Compound A-7] | – | – | – | – | solubility at 24 h (Thermodynamic solubility; aqueous buffer, thermodynamic solubility, buffer pH 6.8, 24-hr incubation at room temperature, read-out: Solubility (pH 6.8)): 840 µM (≈ 673 µg/mL); solubility at 24 h (Thermodynamic solubility; simulated gastric fluid, thermodynamic solubility, buffer pH 1.0, 24-hr incubation at room temperature, read-out: Solubility (pH 1)): 900 µM (≈ 721 µg/mL) |
| CCC[C@H](NC(=O)[C@@H]1C[C@@]2(CN1C(=O)[C@@H](NC(=O)[C@@H](NC(=O)[C@@H]1CCN1C(C)C)C(C)(C)C)C(C)(C)C)C(C)(C)C21CCC1)C(=O)C(=O)NC1CC1 [Compound A-73] | 810 µM (≈ 589 µg/mL) | < 5 µM | – | – | – |
| CCCC(NC(=O)[C@@H]1C[C@@]2(CN1C(=O)[C@@H](NC(=O)[C@@H](NC(=O)[C@@H]1CCCN(C(C)C)C1)C1CCCCC1)C(C)(C)C)C(C)(C)C21CCC1)C(=O)C(=O)NC1CC1 (stereo in doubt) [Compound A-4] | 630 µM (≈ 492 µg/mL) | 200 µM (≈ 156 µg/mL) | – | – | – |
